Laboratory results from ChEMBL document CHEMBL1649264, “ATP synthase inhibition of Mycobacterium avium is not bactericidal” (2009).
Values after ≈ are worked out from the molar mass of the structure shown. Values joined by “and” are separate entries in the source; they are usually repeats but may differ in a detail not shown here. Equal entries are not always repeated.

Key:
Type in all cases: functional
[1] = tested on: Mycobacterium avium; assay: Antitubercular activity against Mycobacterium avium infected in C57BL/6J mouse assessed as reduction of CFU counts in spleen at 150 mg/kg, sc administered one month post-infection five times weekly for 4 months (reference value: 8.9 +/- 0.3 log10CFU); conditions: route subcutaneous
[2] = tested on: Mycobacterium avium; assay: Antitubercular activity against Mycobacterium avium infected in C57BL/6J mouse assessed as reduction of CFU counts in spleen at 25 mg/kg, po administered one month post-infection five times weekly for 2 months (reference value: 9.4 +/- 0.2 log10CFU)
[3] = tested on: Mycobacterium avium; assay: Antitubercular activity against Mycobacterium avium infected in C57BL/6J mouse assessed as reduction of CFU counts in spleen at 150 mg/kg, sc administered one month post-infection five times weekly for 1 month (reference value: 7.4 +/- 1.7 log10CFU); conditions: route subcutaneous
[4] = tested on: Mycobacterium avium; assay: Antitubercular activity against Mycobacterium avium infected in C57BL/6J mouse assessed as reduction of CFU counts in spleen at 200 mg/kg, po administered one month post-infection five times weekly for 3 months (reference value: 7.9 +/- 0.7 log10CFU)
[5] = tested on: Mycobacterium avium; assay: Antitubercular activity against Mycobacterium avium infected in C57BL/6J mouse assessed as reduction of CFU counts in spleen at 25 mg/kg, po administered one month post-infection five times weekly for 4 months (reference value: 8.9 +/- 0.3 log10CFU)
[6] = tested on: Mycobacterium avium; assay: Antitubercular activity against Mycobacterium avium infected in C57BL/6J mouse assessed as reduction of CFU counts in spleen at 25 mg/kg, po administered one day post-infection five times weekly for 1 month (reference value: 8.0 +/- 0.9 log10CFU)
[7] = tested on: Mycobacterium avium; assay: Antitubercular activity against Mycobacterium avium infected in C57BL/6J mouse assessed as reduction of CFU counts in spleen at 25 mg/kg, po administered one month post-infection five times weekly for 1 month (reference value: 7.4 +/- 1.7 log10CFU)
[8] = tested on: Mycobacterium avium; assay: Antitubercular activity against Mycobacterium avium infected in C57BL/6J mouse assessed as reduction of CFU counts in spleen at 200 mg/kg, po administered one month post-infection five times weekly for 2 months (reference value: 9.4 +/- 0.2 log10CFU)
[9] = tested on: Mycobacterium avium; assay: Antimicrobial activity against Mycobacterium avium
[10] = tested on: Mycobacterium avium; assay: Antitubercular activity against Mycobacterium avium infected in C57BL/6J mouse assessed as reduction of CFU counts in spleen at 150 mg/kg, sc administered one month post-infection five times weekly for 3 months (reference value: 7.9 +/- 0.7 log10CFU); conditions: route subcutaneous
[11] = tested on: Mycobacterium tuberculosis; assay: Antimicrobial activity against Mycobacterium tuberculosis
[12] = tested on: Mycobacterium avium; assay: Antitubercular activity against Mycobacterium avium infected in C57BL/6J mouse assessed as reduction of CFU counts in spleen at 150 mg/kg, sc administered one month post-infection five times weekly for 2 months (reference value: 9.4 +/- 0.2 log10CFU); conditions: route subcutaneous
[13] = tested on: Mycobacterium avium; assay: Antitubercular activity against Mycobacterium avium infected in C57BL/6J mouse assessed as reduction of CFU counts in spleen at 25 mg/kg, po administered one month post-infection five times weekly for 3 months (reference value: 7.9 +/- 0.7 log10CFU)
[14] = tested on: Mycobacterium avium; assay: Antitubercular activity against Mycobacterium avium infected in C57BL/6J mouse assessed as reduction of CFU counts in spleen at 200 mg/kg, po administered one month post-infection five times weekly for 1 month (reference value: 7.4 +/- 1.7 log10CFU)
[15] = tested on: Mycobacterium avium; assay: Antitubercular activity against Mycobacterium avium infected in C57BL/6J mouse assessed as reduction of CFU counts in spleen at 200 mg/kg, po administered one month post-infection five times weekly for 4 months (reference value: 8.9 +/- 0.3 log10CFU)
[16] = tested on: Mycobacterium avium; assay: Antitubercular activity against Mycobacterium avium infected in C57BL/6J mouse assessed as reduction of CFU counts in spleen at 200 mg/kg, po administered one day post-infection five times weekly for 1 month (reference value: 8.0 +/- 0.9 log10CFU)

NCC[C@H](O)C(=O)N[C@@H]1C[C@H](N)[C@@H](O[C@H]2O[C@H](CN)[C@@H](O)[C@H](O)[C@H]2O)[C@H](O)[C@H]1O[C@H]1O[C@H](CO)[C@@H](O)[C@H](N)[C@H]1O [AMIKACIN]
log10cfu [1]: 3.5
log10cfu [2]: 6.7
log10cfu [3]: 5.9
log10cfu [4]: 7.2

COc1nc2ccc(Br)cc2cc1[C@@H](c1ccccc1)[C@@](O)(CCN(C)C)c1cccc2ccccc12 [BEDAQUILINE]
log10cfu [5]: 6.5
log10cfu [6]: 5.4
log10cfu [7]: 6.5
log10cfu [8]: 7.7
MIC [9]: 0.007 µg/mL and 0.015 µg/mL
log10cfu [10]: 6.6
MIC [11]: 0.06 µg/mL (≈ 0.108 µM)

CC[C@H]1OC(=O)[C@H](C)[C@@H](O[C@H]2C[C@@](C)(OC)[C@@H](O)[C@H](C)O2)[C@H](C)[C@@H](O[C@@H]2O[C@H](C)C[C@H](N(C)C)[C@H]2O)[C@](C)(OC)C[C@@H](C)C(=O)[C@H](C)[C@@H](O)[C@]1(C)O [CLARITHROMYCIN]
log10cfu [12]: 5
log10cfu [13]: 6.2
log10cfu [14]: 6.6
log10cfu [15]: 7.2
log10cfu [16]: 6
